This note sets out measurements from patent US11407741B2, “Compounds and their use as selective inhibitors of caspase-2” (priority 2017, dated 2022).

The assay has as its target T1, Caspase-2 (Homo sapiens, UniProt P42575).
T1 construct: the Caspase-2 and Caspase-3 are human recombinant active enzymes; purchased Enzo Life ALX-201-057-U100
T1 sequence (P42575 170-325 limits assumed): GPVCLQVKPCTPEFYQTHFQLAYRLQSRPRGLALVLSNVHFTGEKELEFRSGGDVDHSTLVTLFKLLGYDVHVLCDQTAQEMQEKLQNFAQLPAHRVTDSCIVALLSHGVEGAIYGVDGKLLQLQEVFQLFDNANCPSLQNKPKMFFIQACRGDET
T1 sequence (P42575 348-452 limits assumed): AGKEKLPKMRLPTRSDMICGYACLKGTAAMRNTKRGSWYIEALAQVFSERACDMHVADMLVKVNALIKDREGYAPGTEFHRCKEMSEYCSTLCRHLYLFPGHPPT
Kind of assay: Caspase-2 inhibition assay for irreversible inhibitors (kinact/KI, continuous method). The assay is classed as biochemical. The following applies: for Selectivity for Caspase 2: comparison of kinact/KI ratios regarding caspase 2 and 3. As for the experimental part: The efficiency of the comparative compound Δ2Me-TRP601, that is an already known group II Caspase inhibitor (inhibitor of Caspase-2, Caspase-3 and Caspase-7), has been assessed by a similar protocol described in Chauvier et al., 2011 Cell Death Dis 2011, 2:e203.
In this example, the Caspase-2 and Caspase-3 are human recombinant active enzymes that are respectively provided by Enzo Life® (ALX-201-057-U100) and R&D Systems® (707-C3-010/CF).
Caspase-2 is used at a final concentration of 0.1 nM in a “Caspase-2 buffer” containing 20 mM HEPES (pH 7.4), 5 mM DTT, 2 mM EDTA, 0.1% CHAPS and 800 mM succinate. Caspase-3 is used at a final concentration of 0.5 nM in a “Caspase-3 buffer” containing 20 mM HEPES (pH 7.4), 0.1% CHAPS, 5 mM DTT, and 2 mM EDTA.
The peptide substrates used for the enzymatic activity measurements are Ac-DEVD-AMC and Ac-VDVAD-AMC commercialized by EnzoLife® (respectively referenced ALX-260-031-M005 and ALX-260-060-M005). They are fluorogenic due to the presence of their AMC (7-amino-4-methylcoumarin) end group. The releasing of AMC enables to follow the enzymatic activity in fluorescence unit RFU over time in a 96-wells microplate.
The fluorescence values are measured at 37° C. with a spectrofluorometer with a microplate reader BMG FLUOstar OPTIMA. This apparatus is driven by the software Biolise® and is equipped with thermoelectric cooling device by Peltier effect. The mathematical analyses of the experimental data are done with the software Kaleidagraph®.
The inhibitory properties of the tested compounds are evaluated by the determination of the kinact/KI ratio regarding either Caspase-2 or Caspase-3 wherein: • kinact is the maximal inactivation rate constant, and • KI is the dissociation constant according to:
Said ratio is measured according to the continuous method (Allison R D. Curr Protoc Protein Sci. 2001 May; Chapter 3:Unit 3.5.; Chauvier et al., 2011 Cell Death Dis 2:e203; Tan et al., J Med Chem 2015, […]).
Briefly, Caspases activities were determined by monitoring the hydrolysis of fluorogenic substrates (λexc=355 nm, λem=460 nm) as a function of time, in the presence of untreated Caspases (control) or Caspases that had been incubated with a test compound, for 30 min minimum at 37° C. using a BMG Fluostar microplate reader (black 96-well microplates) and the initial velocity (V0) was determined from the linear portion of the progress curve.
Substrates and compounds were previously dissolved in DMSO at 10 mM, with the final solvent concentration kept at lower 4% (v/v). V0, relative velocities, KM and IC50 were determined from experimental data using Mars data Analysis 2.0 and Kaleidagraph softwares.
Inhibitor binding affinity (dissociation constant, KI) and first-order rate constant (k3) parameters were determined for Caspase-2 and Caspase-3 using the progress curve method. The ratio k3/KI was obtained by fitting the experimental data to the equations (F.U., fluorescence unit): […]
A continuous method of determination of the kinact/KI ratio was used for evaluating the inhibitory activity of the tested compounds against Caspase-2 and Caspase-3.
The reaction mixture is prepared by letting the enzyme and the buffer incubate at 37° C.
The tested inhibitory compounds are prepared at different concentrations (¼ IC50; ½ IC50; IC50; 2 IC50; 4 IC50) and put in the microplate.
Then the reaction mixture comprising the enzyme, the buffer and the substrate is rapidly added in the wells.
The activities of the enzyme are measured between 45 and 60 minutes.
The RFU (Relative Fluorescence Units)=f(times) curves are traced for each concentration of tested molecule according to the following equation: ((((−V0)*(exp(−kobs*m0)))+V0)/kobs*)+RFU0
in which: • V0 corresponds to the initial rate (RFU·s^−1) in the concentration of 0 of the tested inhibitory compound; • kobs is the inactivation rate constant; • RFU0 is the fluorescence value at t=0 min; and • m0 is the variable i.e. the inhibitor concentration.

Structures are written as SMILES. Where a SMILES comes first, the peptide text is derived from it. [ ]: non-standard residue; d: D form. The star is where a group is joined. Pro(3S-CH2tBu) = CC(C)(C)C[C@H]1CCN[C@@H]1C(=O)O; X4 = CN(Cc1ccccc1)C(=O)/C=C/C(=O)N(CC(=O)O)N*; X3 = O=C(O)CN(N*)C(=O)COc1c(F)cccc1F; Quinaldoyl = O=C(c1ccc2ccccc2n1)*

As to `CC(C)[C@H](NC(=O)[C@H](CC(=O)O)NC(=O)C(=O)Nc1ccccc1C(C)(C)C)C(=O)N1CC[C@H](CC(C)(C)C)[C@H]1C(=O)NN(CC(=O)O)C(=O)COc1c(F)cccc1F` [Compound 6, (S)-3-(2-((2-(tert-butyl)phenyl)amino)-2-oxoacetamido)-4-(((S)-1-((2S,3S)-2-(2-(carboxymethyl)-2-(2-(2,6-difluorophenoxy)acetyl)hydrazinecarbonyl)-3-neopentylpyrrolidin-1-yl)-3-methyl-1-oxobutan-2-yl)amino)-4-oxobutanoic acid], the “type of inhibition (irreversible)” value was “irreversible inhibitor” and the “Selectivity for Caspase 2” value is reported as “yes”.
Taken in the same sequence, the figures for `CC(C)[C@H](NC(=O)c1ccc2ccccc2n1)C(=O)N[C@@H](CC(=O)O)C(=O)N[C@H](C(=O)N1CC[C@H](CC(C)(C)C)[C@H]1C(=O)NN(CC(=O)O)C(=O)COc1c(F)cccc1F)C(C)C` [Compound 4, (S)-4-(((S)-1-((2S,3S)-2-(2-(carboxymethyl)-2-(2-(2,6-difluorophenoxy)acetyl)hydrazinecarbonyl)-3-neopentylpyrrolidin-1-yl)-3-methyl-1-oxobutan-2-yl)amino)-3-((S)-3-methyl-2-(quinoline-2-carboxamido)butanamido)-4-oxobutanoic acid] (Quinaldoyl-VDV[Pro(3S-CH2tBu)]-X3) were “irreversible inhibitor” and “yes”.
With `CC(C)[C@H](NC(=O)c1ccc2ccccc2n1)C(=O)N[C@@H](CC(=O)O)C(=O)N[C@H](C(=O)N1CC[C@H](CC(C)(C)C)[C@H]1C(=O)N[C@@H](CC(=O)O)C(=O)COc1c(F)cccc1F)C(C)C` (single isomer, unassigned) [Compound 2 enantiomer a], under “human recombinant Caspase-2 0.1 nM, 37° C.”, the “k3/KI Casp2” value is reported as 1 894 076 M^−1 · s^−1. In addition, under “ratio of k3/KI Casp2 to Casp3”, the “Selectivity ratio (C2/C3)” value worked out at 721.
Regarding `CC(C)[C@H](NC(=O)c1ccc2ccccc2n1)C(=O)N[C@@H](CC(=O)O)C(=O)N[C@H](C(=O)N1CC[C@H](CC(C)(C)C)[C@H]1C(=O)NN(CC(=O)O)C(=O)/C=C/C(=O)N(C)Cc1ccccc1)C(C)C` [Compound 5, (S)-4-(((S)-1-((2S,3S)-2-(2-((E)-4-(benzyl(methyl)amino)-4-oxobut-2-enoyl)-2-(carboxymethyl)hydrazinecarbonyl)-3-neopentylpyrrolidin-1-yl)-3-methyl-1-oxobutan-2-yl)amino)-3-((S)-3-methyl-2-(quinoline-2-carboxamido)butanamido)-4-oxobutanoic acid] (Quinaldoyl-VDV[Pro(3S-CH2tBu)]-X4), the “type of inhibition (irreversible)” value is “irreversible inhibitor” and the “Selectivity for Caspase 2” value is on record as “yes”.
